Experimental data: US11840686B2, “Modulation of prekallikrein (PKK) expression” (Ionis Pharmaceuticals, Inc., priority 2013, dated 2023)
Strand notation (5' to 3'): a small letter for the sugar, then the base; units joined by * are phosphorothioate-linked, units joined directly phosphodiester-linked; [ ] holds rarer units or linkages, { } end groups; capitals alone tell only the bases. e = 2'-O-(2-methoxyethyl) (MOE); [5mC] = 5-methylcytosine; d = 2'-deoxy (DNA)

Test system: human PKK mRNA
Test: Antisense inhibition of human PKK mRNA in HepaRG cells, 5,000 nM (Example 2)
Type: cell-based
Conditions: HepaRG cells, electroporation with 5,000 nM antisense oligonucleotide, approximately 24 hours, PKK mRNA by RT-PCR (RTS3454), relative to untreated control cells
Procedure: Additional antisense oligonucleotides were designed targeting a PKK nucleic acid and were tested for their effects on PKK mRNA in vitro.
The chimeric antisense oligonucleotides in the tables below were designed as 5-10-5 MOE gapmers, 4-9-4 MOE gapmers, 4-10-4 MOE gapmers, 4-10-3 MOE gapmers, 3-10-4 MOE gapmers, or 3-10-3 MOE gapmers. The 5-10-5 MOE gapmers are 20 nucleosides in length, wherein the central gap segment comprises of ten 2′-deoxynucleosides and is flanked by wing segments on the 5′ direction and the 3′ direction comprising five nucleosides each. The 4-9-4 MOE gapmers are 17 nucleosides in length, wherein the central gap segment comprises of nine 2′-deoxynucleosides and is flanked by wing segments on the 5′ direction and the 3′ direction comprising four nucleosides each. The 4-10-4 MOE gapmers are 18 nucleosides in length, wherein the central gap segment comprises of ten 2′-deoxynucleosides and is flanked by wing segments on the 5′ direction and the 3′ direction comprising four nucleosides each. The 4-10-3 MOE gapmers are 17 nucleosides in length, wherein the central gap segment comprises of ten 2′-deoxynucleosides and is flanked by wing segments on the 5′ direction and the 3′ direction comprising four and three nucleosides respectively. The 3-10-4 MOE gapmers are 17 nucleosides in length, wherein the central gap segment comprises often 2′-deoxynucleosides and is flanked by wing segments on the 5′ direction and the 3′ direction comprising three and four nucleosides respectively. The 3-10-3 MOE gapmers are 16 nucleosides in length, wherein the central gap segment comprises of ten 2′-deoxynucleosides and is flanked by wing segments on the 5′ direction and the 3′ direction comprising three nucleosides each. Each nucleoside in the 5′ wing segment and each nucleoside in the 3′ wing segment has a 2′-O-methoxyethyl modification. The internucleoside linkages throughout each gapmer are phosphorothioate linkages. All cytosine residues throughout each gapmer are 5-methylcytosines. “Start site” indicates the 5′-most nucleoside to which the gapmer is targeted in the human gene sequence. “Stop site” indicates the 3′-most nucleoside to which the gapmer is targeted in the human gene sequence.
Cultured HepaRG™ cells at a density of 20,000 cells per well were transfected using electroporation with 5,000 nM antisense oligonucleotide. After a treatment period of approximately 24 hours, RNA was isolated from the cells and PKK mRNA levels were measured by quantitative real-time PCR. Human primer probe set RTS3454 was used to measure mRNA levels. PKK mRNA levels were adjusted according to total RNA content, as measured by RIBOGREEN®. The antisense oligonucleotides were tested in a series of experiments that had similar culture conditions. Results are presented as percent inhibition of PKK, relative to untreated control cells.

Substance	% inhibition (Table 5 experiment)	% inhibition (Table 6 experiment)
546131 (eA*eT*eG*eA*eA*d[5mC]*dG*dG*dT*d[5mC]*dT*dT*d[5mC]*dA*dA*eG*e[5mC]*eT*eG*eT; antisense) [compound 546131]	75%	
546136 (eG*eG*eA*eG*eG*dT*dG*dA*dG*dT*d[5mC]*dT*d[5mC]*dT*dT*eG*eT*e[5mC]*eA*e[5mC]; antisense) [compound 546136]	86%	
546137 (eA*eT*eT*eG*e[5mC]*dT*dT*d[5mC]*dT*dT*dG*dG*dA*dG*dG*eT*eG*eA*eG*eT; antisense) [compound 546137]	76%	
546138 (eA*eA*eA*e[5mC]*eA*d[5mC]*dA*dA*dT*dT*dG*d[5mC]*dT*dT*d[5mC]*eT*eT*eG*eG*eA; antisense) [compound 546138]	69%	
546140 (eG*e[5mC]*eT*eT*eG*d[5mC]*dT*dT*dG*dA*dA*dT*dA*dA*dA*eA*eT*e[5mC]*eA*eT; antisense) [compound 546140]	60%	
546141 (eG*eA*eA*eA*eT*dA*dA*dG*dT*dT*dG*d[5mC]*dT*dT*dG*e[5mC]*eT*eT*eG*eA; antisense) [compound 546141]	56%	
546143 (eG*eG*eA*eA*eA*d[5mC]*dT*dG*dT*dA*dG*d[5mC]*dA*dA*dA*e[5mC]*eA*eA*eG*eG; antisense) [compound 546143]	46%	
546144 (e[5mC]*eA*e[5mC]*eA*eG*dG*dA*dA*dA*d[5mC]*dT*dG*dT*dA*dG*e[5mC]*eA*eA*eA*e[5mC]; antisense) [compound 546144]	75%	
546146 (eT*eG*eA*eG*eT*d[5mC]*dA*dG*dA*d[5mC]*dA*dT*d[5mC]*d[5mC]*dA*e[5mC]*eA*eG*eG*eA; antisense) [compound 546146]	72%	
546147 (eT*e[5mC]*eA*eT*eA*dG*dA*dG*dT*dT*dG*dA*dG*dT*d[5mC]*eA*eG*eA*e[5mC]*eA; antisense) [compound 546147]	76%	
546148 (e[5mC]*eG*eT*eT*eT*dT*d[5mC]*dA*dT*dA*dG*dA*dG*dT*dT*eG*eA*eG*eT*e[5mC]; antisense) [compound 546148]	68%	
546149 (e[5mC]*e[5mC]*e[5mC]*e[5mC]*eA*d[5mC]*d[5mC]*dT*d[5mC]*dT*dG*dA*dA*dG*dA*eA*eG*eG*e[5mC]*eG; antisense) [compound 546149]	83%	
546150 (e[5mC]*eA*eT*e[5mC]*e[5mC]*d[5mC]*d[5mC]*dA*d[5mC]*d[5mC]*dT*d[5mC]*dT*dG*dA*eA*eG*eA*eA*eG; antisense) [compound 546150]	58%	
546151 (eG*eG*eA*eA*eG*d[5mC]*dT*dA*d[5mC]*dA*dT*d[5mC]*d[5mC]*d[5mC]*d[5mC]*eA*e[5mC]*e[5mC]*eT*e[5mC]; antisense) [compound 546151]	76%	
546152 (eG*eT*eA*e[5mC]*eA*dT*dG*dG*dA*dA*dG*d[5mC]*dT*dA*d[5mC]*eA*eT*e[5mC]*e[5mC]*e[5mC]; antisense) [compound 546152]	73%	
546153 (eG*eG*eG*eT*eG*dT*dA*d[5mC]*dA*dT*dG*dG*dA*dA*dG*e[5mC]*eT*eA*e[5mC]*eA; antisense) [compound 546153]	76%	
546154 (eT*eG*eG*e[5mC]*eA*dG*dT*dA*dT*dT*dG*dG*dG*d[5mC]*dA*eT*eT*eT*eG*eG; antisense) [compound 546154]	85%	
546155 (e[5mC]*e[5mC]*eT*e[5mC]*eA*dT*d[5mC]*dT*dG*dG*d[5mC]*dA*dG*dT*dA*eT*eT*eG*eG*eG; antisense) [compound 546155]	47%	
546156 (eG*eA*eA*eT*eG*dT*dG*d[5mC]*dA*d[5mC]*d[5mC]*dT*d[5mC]*dA*dT*e[5mC]*eT*eG*eG*e[5mC]; antisense) [compound 546156]	81%	
546157 (eG*eG*eG*eT*eG*dG*dA*dA*dT*dG*dT*dG*d[5mC]*dA*d[5mC]*e[5mC]*eT*e[5mC]*eA*eT; antisense) [compound 546157]	85%	
546159 (eT*eA*eG*e[5mC]*eA*dA*dA*d[5mC]*dA*d[5mC]*d[5mC]*dT*dT*dG*dG*eG*eT*eG*eG*eA; antisense) [compound 546159]	76%	

Substance	% inhibition (Table 5 experiment)	% inhibition (Table 6 experiment)
546160 (eA*e[5mC]*eT*eG*eA*dA*dT*dA*dG*d[5mC]*dA*dA*dA*d[5mC]*dA*e[5mC]*e[5mC]*eT*eT*eG; antisense) [compound 546160]	78%	
546163 (eA*e[5mC]*eT*eT*eG*d[5mC]*dT*dG*dG*dA*dA*dG*dA*dA*dA*eA*e[5mC]*eT*eG*eA; antisense) [compound 546163]	42%	
546164 (eT*eG*eA*eT*eT*dG*dA*dA*d[5mC]*dT*dT*dG*d[5mC]*dT*dG*eG*eA*eA*eG*eA; antisense) [compound 546164]	33%	
546165 (e[5mC]*eA*eT*eT*eG*dA*dT*dT*dG*dA*dA*d[5mC]*dT*dT*dG*e[5mC]*eT*eG*eG*eA; antisense) [compound 546165]	71%	
546166 (eT*eG*eT*e[5mC]*eA*dT*dT*dG*dA*dT*dT*dG*dA*dA*d[5mC]*eT*eT*eG*e[5mC]*eT; antisense) [compound 546166]	70%	
546167 (e[5mC]*eT*e[5mC]*e[5mC]*eA*dT*dG*dT*d[5mC]*dA*dT*dT*dG*dA*dT*eT*eG*eA*eA*e[5mC]; antisense) [compound 546167]	73%	
546170 (antisense eG*e[5mC]*eA*eA*e[5mC]*d[5mC]*dA*dA*dA*d[5mC]*d[5mC]*dT*dT*dT*dT*e[5mC]*eT*e[5mC]*e[5mC]*eA) [compound 546170]	54%	
546171 (antisense e[5mC]*eT*eA*eT*e[5mC]*dT*dT*dT*d[5mC]*dA*dA*dG*dA*dA*dG*e[5mC]*eA*eA*e[5mC]*e[5mC]) [compound 546171]	81%	
546172 (antisense eA*eA*e[5mC]*eA*e[5mC]*dT*dA*dT*d[5mC]*dT*dT*dT*d[5mC]*dA*dA*eG*eA*eA*eG*e[5mC]) [compound 546172]	81%	
546173 (antisense e[5mC]*eG*eA*eT*eG*dT*dA*d[5mC]*dT*dT*dT*dT*dG*dG*d[5mC]*eA*eG*eG*eG*eT) [compound 546173]	84%	
546174 (antisense e[5mC]*e[5mC]*eT*eG*eT*dT*d[5mC]*dG*dA*dT*dG*dT*dA*d[5mC]*dT*eT*eT*eT*eG*eG) [compound 546174]		74%
546175 (antisense e[5mC]*eT*eG*e[5mC]*eA*d[5mC]*d[5mC]*dT*dG*dT*dT*d[5mC]*dG*dA*dT*eG*eT*eA*e[5mC]*eT) [compound 546175]		78%
546177 (antisense eT*eG*eT*e[5mC]*e[5mC]*dA*dG*dA*dA*dA*d[5mC]*dT*dG*d[5mC]*dA*e[5mC]*e[5mC]*eT*eG*eT) [compound 546177]		75%
546181 (antisense eT*eG*eA*e[5mC]*e[5mC]*dA*d[5mC]*dA*dT*dT*dG*d[5mC]*dT*dT*d[5mC]*eA*eA*eG*eG*eA) [compound 546181]		75%
546183 (antisense e[5mC]*eA*e[5mC]*eT*eT*dA*dT*dT*dT*dG*dA*dT*dG*dA*d[5mC]*e[5mC]*eA*e[5mC]*eA*eT) [compound 546183]		69%
546184 (antisense e[5mC]*eA*eA*eG*e[5mC]*dA*d[5mC]*dT*dT*dA*dT*dT*dT*dG*dA*eT*eG*eA*e[5mC]*e[5mC]) [compound 546184]		65%
546186 (antisense eA*eT*eG*eT*e[5mC]*dT*d[5mC]*dG*dA*dT*dG*dG*d[5mC]*dA*dA*eG*e[5mC]*eA*e[5mC]*eT) [compound 546186]		84%
546192 (antisense eA*eA*eT*eT*eG*dA*d[5mC]*dT*d[5mC]*d[5mC]*dT*d[5mC]*dT*d[5mC]*dA*eT*eA*eT*e[5mC]*eA) [compound 546192]		51%
546193 (antisense e[5mC]*eA*eT*eT*eA*dA*dA*dA*dT*dT*dG*dA*d[5mC]*dT*d[5mC]*e[5mC]*eT*e[5mC]*eT*e[5mC]) [compound 546193]		57%
546196 (antisense e[5mC]*eA*e[5mC]*eT*eG*d[5mC]*dT*dA*dA*d[5mC]*d[5mC]*dT*dT*dA*dG*eA*e[5mC]*eA*e[5mC]*eA) [compound 546196]		83%
